Results on four molecules are retold here after ChEMBL document CHEMBL1153773, “Structure-activity relationship of seco-tanapartholides isolated from Achillea falcata for inhibition of HaCaT cell growth” (Eur J Med Chem, 2009).

The test system of data set [1] is HaCaT. Description: Cytotoxicity against human HaCaT cells after 24 hrs by MTT assay. It counts as functional, cell-based. A general note: Formazan colour is commonly taken as a measure of viable cells.
The test system of data set [2] is HaCaT. Nature of the data set: Cytotoxicity against human HaCaT cells assessed as lactate dehydrogenase release at 5 ug/ml after 6 hrs by ELISA. In kind it is functional. Background: ELISA stands for enzyme-linked immunosorbent assay.
Data set [3] relates to HaCaT. Description: Cytotoxicity against human HaCaT cells assessed as lactate dehydrogenase release at 10 ug/ml after 6 hrs by ELISA. It counts as functional.
In data set [4] the test system is HaCaT. Nature of the data set: Cytotoxicity against human HaCaT cells assessed as lactate dehydrogenase release at 15 ug/ml after 6 hrs by ELISA. It counts as functional.
For data set [5], the system named is HaCaT. Description: Cytotoxicity against human HaCaT cells assessed as lactate dehydrogenase release at 20 ug/ml after 6 hrs by ELISA. In kind it is functional.
The subject of data set [6] is HaCaT. Nature of the data set: Cytotoxicity against human HaCaT cells assessed as lactate dehydrogenase release at 25 ug/ml after 6 hrs by ELISA. It counts as functional.
Data set [7] has as its system HaCaT. Description: Cytotoxicity against human HaCaT cells assessed as lactate dehydrogenase release at 50 ug/ml after 6 hrs by ELISA. It counts as functional.
The subject of data set [8] is HaCaT. Description: Cytotoxicity against human HaCaT cells assessed as lactate dehydrogenase release at 75 ug/ml after 6 hrs by ELISA. In kind it is functional.
The test system of data set [9] is HaCaT. Description: Cytotoxicity against human HaCaT cells assessed as lactate dehydrogenase release at 100 ug/ml after 6 hrs by ELISA. It counts as functional.
Data set [10] can be described thus: Cytotoxicity against human keratinocytes at 25 ug/ml. The conditions noted are these: keratinocyte. In kind it is cell-based.
For data set [11], the system named is HaCaT. Description: Cytotoxicity against human HaCaT cells assessed as reduction in cell viability at 5 ug/ml after 24 hrs by MTT assay. In kind it is functional.
Data set [12] deals with HaCaT. Nature of the data set: Cytotoxicity against human HaCaT cells assessed as reduction in cell viability at 10 ug/ml after 24 hrs by MTT assay. In kind it is functional.
Data set [13] can be described thus: Cytotoxicity against human Keratinocyte cells assessed as reduction in cell viability at 5 ug/ml after 24 hrs by MTT assay. In kind it is cell-based.
Data set [14] is described as follows: Cytotoxicity against human Keratinocyte cells assessed as reduction in cell viability at 10 ug/ml after 24 hrs by MTT assay. It counts as cell-based.
Data set [15] relates to HaCaT. Description: Cell cycle arrest in human HaCaT cells assessed as accumulation at G2/M phase after 24 hrs. It counts as functional, cell-based.

Values after ≈ are worked out from the molar mass of the structure shown. Active and inactive are the calls of the source. No cut-off for these calls is given here. Where only a bound is given, the exact number is not on record here.

Turning to `C=C1C(=O)O[C@H](C2=C(C)C(OC)CC2=O)[C@@H]1[C@@H](O)CC(C)=O` (stereo not given in full), the Activity entry in data set [1] was “Dose-dependent effect”; in [2] it was 4%; in data set [3], 4%; in [4], 4%; in data set [5] it was 4%; in data set [6], 5%. In addition, the Activity in data set [7] was found to be 2%; in data set [8], 1%; in [9], 0%. Moreover, in [1], the IC50 (usually the concentration needed to halve the response being measured) came out at 16.7 µg/mL (≈ 54.2 µM).
For `C=C1C(=O)O[C@H](C2=C(C)[C@@H](O)CC2=O)[C@@H]1CCC(C)=O`, the Activity result in data set [1] is “Dose-dependent effect”; in data set [2], 4%; in data set [3] it was 18%; in [4], 0%; in data set [5], 11%; in [6], 11%. Besides, the values for the Activity in data set [7] and in data set [8] were 0% and 2%, respectively. The molecule further came in with an IC50 in data set [1] of 13 µg/mL (≈ 46.7 µM).
Take `C=C1C(=O)O[C@H](C2=C(C)[C@@H](OC)CC2=O)[C@@H]1CCC(C)=O`: the Activity result in [1] is “Dose-dependent effect”; in data set [2], 7%; in data set [3], 7%; in data set [4], 7%; in data set [5], 5%; in data set [6] it was 7%. The Activity in data set [7] is on record as 0%; in data set [8], 0%; in [9] it was 0%; in data set [10], “Toxic”; in data set [11], 44%; in data set [12], 66%. Also, the Activity in data set [13] and in data set [14] was > 10% throughout. In data set [1], this molecule registered an IC50 of 7.1 µg/mL (≈ 24.3 µM). Also, the outcome in [15] was Active.
As for `C=C1C(=O)O[C@H](C2=C(C)C(O)CC2=O)[C@@H]1CCC(C)=O` (mixture of isomers), the Activity result in data set [1] is “Dose-dependent effect”; in [2], 2%; in data set [3], 3%; in data set [4], 2%; in data set [5] it was 5%; in [6], 3%. The Activity in data set [7], in [8] and in data set [9] was 0% each time. The IC50 in data set [1] stood at 19.1 µg/mL.
